Like-named read-outs stand apart in the source and are kept apart here.
What was measured:
[1] = target: T1, Ketohexokinase Khk-C (ketohexokinase C), H. sapiens, SEQ ID NO:1 (Homo sapiens, UniProt P50053); conditions: 4 mM ATP, Hepes buffer pH 7, NADH at 340 nm
T1 sequence (P50053 1-298): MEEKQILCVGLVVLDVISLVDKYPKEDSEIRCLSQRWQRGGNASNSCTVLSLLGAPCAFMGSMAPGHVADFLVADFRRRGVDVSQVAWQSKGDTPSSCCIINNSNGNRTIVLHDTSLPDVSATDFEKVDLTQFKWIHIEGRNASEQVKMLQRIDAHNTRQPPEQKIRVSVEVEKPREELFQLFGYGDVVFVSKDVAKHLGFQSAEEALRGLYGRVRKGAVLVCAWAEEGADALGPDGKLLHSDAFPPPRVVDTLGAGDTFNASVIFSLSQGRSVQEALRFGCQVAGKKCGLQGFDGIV

[2] = target: T2, Fructose-16bP aldolase FbaB (fructose-1,6 bisphosphate aldolase B), E. coli, SEQ ID NO:9 (Escherichia coli, UniProt P0A991); experiment: Kinetic parameters of candidate aldolase by coupled NADH consumption assay; assay type: biochemical; conditions: Hepes buffer pH 7, NADH consumption at 340 nm
T2 sequence (P0A991 1-350): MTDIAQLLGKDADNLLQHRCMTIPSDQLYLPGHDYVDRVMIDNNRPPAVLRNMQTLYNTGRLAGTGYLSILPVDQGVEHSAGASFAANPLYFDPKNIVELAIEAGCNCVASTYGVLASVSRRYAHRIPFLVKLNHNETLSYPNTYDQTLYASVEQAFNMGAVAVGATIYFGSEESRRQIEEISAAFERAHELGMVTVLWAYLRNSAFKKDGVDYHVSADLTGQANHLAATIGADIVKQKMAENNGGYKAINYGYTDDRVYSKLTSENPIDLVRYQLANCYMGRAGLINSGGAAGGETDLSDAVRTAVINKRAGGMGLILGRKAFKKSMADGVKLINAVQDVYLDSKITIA
Method: (§1) The cloning of the candidate aldolases was done by amplifying aldoB, fbaB and agaY by PCR (using, respectively, the primer pairs P5/P6, P7/P8 and P11/P12 listed in table 3). This amplification was performed from the plasmid peX-A-aldoB carrying aldoB with codon optimization (Eurofins) or from the E. coli genomic DNA for fbaB and agaY, respectively. The fragments were then cloned in pGEM (Invitrogen). […] The ligation product is transformed in the E. coli strain BL21(DE3).

[3] = target: T3, Fructose-16bP aldolase Aldo-B (aldolase B), H. sapiens, SEQ ID NO:2 (Homo sapiens, UniProt P05062); experiment: as above; assay type: biochemical; conditions: Hepes buffer pH 7, NADH consumption at 340 nm
T3 sequence (P05062 1-364): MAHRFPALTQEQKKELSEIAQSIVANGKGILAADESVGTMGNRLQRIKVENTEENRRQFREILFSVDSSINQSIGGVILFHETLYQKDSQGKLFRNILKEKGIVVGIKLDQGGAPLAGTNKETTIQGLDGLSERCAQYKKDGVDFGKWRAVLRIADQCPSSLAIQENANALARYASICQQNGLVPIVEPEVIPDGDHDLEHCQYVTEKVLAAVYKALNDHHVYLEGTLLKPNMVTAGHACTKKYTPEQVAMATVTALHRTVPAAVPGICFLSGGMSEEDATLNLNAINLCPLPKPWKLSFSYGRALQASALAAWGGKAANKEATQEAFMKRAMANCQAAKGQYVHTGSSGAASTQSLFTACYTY
Method: as §1

[4] = Kinase kinetic parameters on (D)-xylulose (pyruvate kinase/lactate dehydrogenase coupling reaction); assay type: biochemical
[5] = Kinase kinetic parameters on (L)-ribulose (pyruvate kinase/lactate dehydrogenase coupling reaction); assay type: biochemical
Excerpt: The same approach was used to characterize these parameters on (L)-ribulose: […]

[6] = target: (L)-rhamnulose kinase RhaB, E. coli, SEQ ID NO:6 (Escherichia coli, UniProt P32171); experiment: Kinetic parameters of candidate kinase by pyruvate kinase/lactate dehydrogenase coupling reaction; assay type: biochemical; conditions: Table 1A; 4 mM ATP, Hepes buffer pH 7, NADH at 340 nm
(L)-rhamnulose kinase RhaB, E. coli, SEQ ID NO:6, sequence (P32171 whole entry): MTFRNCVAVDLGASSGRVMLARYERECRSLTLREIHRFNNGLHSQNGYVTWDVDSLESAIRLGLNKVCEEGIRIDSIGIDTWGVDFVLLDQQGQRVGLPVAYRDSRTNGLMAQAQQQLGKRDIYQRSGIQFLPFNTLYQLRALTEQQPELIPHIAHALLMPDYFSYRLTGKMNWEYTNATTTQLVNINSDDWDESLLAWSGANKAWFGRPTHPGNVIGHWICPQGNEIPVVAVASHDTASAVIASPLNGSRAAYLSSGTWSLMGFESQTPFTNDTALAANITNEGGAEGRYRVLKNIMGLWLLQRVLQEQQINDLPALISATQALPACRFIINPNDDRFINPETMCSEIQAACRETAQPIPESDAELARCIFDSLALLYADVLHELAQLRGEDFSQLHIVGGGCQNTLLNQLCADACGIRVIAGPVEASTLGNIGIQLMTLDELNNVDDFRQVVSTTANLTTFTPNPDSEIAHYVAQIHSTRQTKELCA

[7] = target: T4, L-fuculokinase FucK (fuculose kinase), E. coli, SEQ ID NO:5 (Escherichia coli, UniProt P11553); experiment: as above; assay type: biochemical; conditions: Table 1A; 4 mM ATP, Hepes buffer pH 7, NADH at 340 nm
T4 sequence (P11553 1-472): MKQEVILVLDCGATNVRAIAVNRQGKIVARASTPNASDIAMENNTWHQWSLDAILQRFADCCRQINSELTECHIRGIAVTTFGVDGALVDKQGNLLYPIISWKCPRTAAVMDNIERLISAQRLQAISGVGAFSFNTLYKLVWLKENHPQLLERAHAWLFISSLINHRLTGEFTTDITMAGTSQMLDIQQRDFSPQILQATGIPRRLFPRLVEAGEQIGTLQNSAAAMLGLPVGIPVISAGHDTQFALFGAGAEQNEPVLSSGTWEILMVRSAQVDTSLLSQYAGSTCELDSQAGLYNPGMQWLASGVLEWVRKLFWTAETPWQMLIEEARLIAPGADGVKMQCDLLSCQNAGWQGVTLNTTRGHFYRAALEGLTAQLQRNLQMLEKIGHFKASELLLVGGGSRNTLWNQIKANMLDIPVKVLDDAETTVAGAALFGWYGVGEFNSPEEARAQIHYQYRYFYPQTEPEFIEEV

[8] = Aldolase kinetic parameters on (D)-xylulose-1-phosphate (NADH-coupled assay); assay type: biochemical
[9] = substrate: O=P(O)(O)OC[C@H]1OC(O)(COP(=O)(O)O)[C@@H](O)[C@@H]1O; experiment: purified protein, by the assay type; conditions: other: Hepes buffer pH 7, NADH consumption at 340 nm, 37.0 °C
[10] = substrate: C[C@H](O)[C@@H](O)[C@@H](O)C(=O)CO; experiment: Kinetic parameters of candidate kinase by pyruvate kinase/lactate dehydrogenase coupling reaction; assay type: biochemical, E. coli; conditions: other: Table 1A, 4 mM ATP, Hepes buffer pH 7, NADH at 340 nm, 37.0 °C
[11] = Aldolase kinetic parameters on (L)-ribulose-1-phosphate (NADH-coupled assay); assay type: biochemical
Excerpt: (L)-ribulose-1 kinase: (L)-ribulose+ATP→(L)-ribulose-1P+ADP (L)-ribulose-1P aldolase: (L)-ribulose-1P→DHAP+glycolaldehyde Glycerol-3P dehydrogenase: DHAP+NADH→Glycerol-3P+NAD

Question: Which results are given for OCC1(O)OC[C@@H](O)[C@@H](O)[C@@H]1O (stereo partly drawn) [fructose]?
Answer: Km ([1]; Table 1A): 720 µM; Vmax ([1]; Table 1A): 6 U/mg; Km ([1]; Table 1B): 310 ± 100 µM; Vmax ([1]; Table 1B): 6.59 ± 1.4 U/mg

Question: With O=C(COP(=O)(O)O)[C@@H](O)[C@H](O)CO [(D)-Xylulose-1P, (D)-xylulose-1-phosphate] as the molecule, how does the Vmax [2] read?
Answer: 0.18 ± 0.04 U/mg

Question: And the Vmax [3]?
Answer: 0.81 ± 0.2 U/mg

Question: What does the source list for O=C(CO)[C@@H](O)[C@@H](O)CO [(L)-ribulose]?
Answer: Km ([1]; Table 1B): 550 µM; Vmax ([1]; Table 1B): 3.5 U/mg

Question: Which Vmax [2] does the source give for O=C(COP(=O)(O)O)[C@@H](O)[C@@H](O)CO [(L)-Ribulose-1P, (L)-ribulose-1-phosphate] here?
Answer: 0.06 ± 0.01 U/mg

Question: What about the Vmax [3] of the same molecule?
Answer: 0.00 U/mg

Question: With “Khk-C: isoform C of ketohexokinase of H. sapiens, encoded by khkC gene SEQ ID NO:1, expressed from pET28a and purified” as the molecule, how does the “functional on (D)-xylulose” value [4] read?
Answer: functional

Question: What about the “functional on (L)-ribulose” value [5] of the same molecule?
Answer: functional

Question: With O=C(CO)[C@@H](O)[C@H](O)CO [(D)-xylulose] as the molecule, how does the Km ([1]; Table 1A) read?
Answer: 600 µM

Question: What about the Vmax ([1]; Table 1A) of the same molecule?
Answer: 3.1 U/mg

Question: And the Km [6]?
Answer: ns

Question: And the Vmax [6]?
Answer: 18.7 U/mg

Question: What about the Km [7] of the same molecule?
Answer: ns

Question: What about the Vmax [7] of the same molecule?
Answer: 0.1 U/mg

B1: Fructose-16bP aldolase Aldo-B (aldolase B), H. sapiens, SEQ ID NO:2 (Homo sapiens) (protein)
chain: MAHRFPALTQEQKKELSEIAQSIVANGKGILAADESVGTMGNRLQRIKVENTEENRRQFREILFSVDSSINQSIGGVILFHETLYQKDSQGKLFRNILKEKGIVVGIKLDQGGAPLAGTNKETTIQGLDGLSERCAQYKKDGVDFGKWRAVLRIADQCPSSLAIQENANALARYASICQQNGLVPIVEPEVIPDGDHDLEHCQYVTEKVLAAVYKALNDHHVYLEGTLLKPNMVTAGHACTKKYTPEQVAMATVTALHRTVPAAVPGICFLSGGMSEEDATLNLNAINLCPLPKPWKLSFSYGRALQASALAAWGGKAANKEATQEAFMKRAMANCQAAKGQYVHTGSSGAASTQSLFTACYTY
Question: With B1 as the molecule, how does the “activity on (D)-xylulose-1P” value [8] read?
Answer: has an activity

Question: What about the Km [9] of the same molecule?
Answer: 30 ± 10 µM

Question: And the Vmax [9]?
Answer: 0.46 ± 0.05 U/mg

B2: L-fuculokinase FucK (fuculose kinase), E. coli, SEQ ID NO:5 (Escherichia coli K-12) (protein)
chain: MKQEVILVLDCGATNVRAIAVNRQGKIVARASTPNASDIAMENNTWHQWSLDAILQRFADCCRQINSELTECHIRGIAVTTFGVDGALVDKQGNLLYPIISWKCPRTAAVMDNIERLISAQRLQAISGVGAFSFNTLYKLVWLKENHPQLLERAHAWLFISSLINHRLTGEFTTDITMAGTSQMLDIQQRDFSPQILQATGIPRRLFPRLVEAGEQIGTLQNSAAAMLGLPVGIPVISAGHDTQFALFGAGAEQNEPVLSSGTWEILMVRSAQVDTSLLSQYAGSTCELDSQAGLYNPGMQWLASGVLEWVRKLFWTAETPWQMLIEEARLIAPGADGVKMQCDLLSCQNAGWQGVTLNTTRGHFYRAALEGLTAQLQRNLQMLEKIGHFKASELLLVGGGSRNTLWNQIKANMLDIPVKVLDDAETTVAGAALFGWYGVGEFNSPEEARAQIHYQYRYFYPQTEPEFIEEV
Question: For B2, which Km [10] is on record?
Answer: 60 µM

Question: What about the Vmax [10] of the same molecule?
Answer: 20 U/mg

B3: Fructose-16bP aldolase FbaB (fructose-1,6 bisphosphate aldolase B), E. coli, SEQ ID NO:9 (Escherichia coli K-12) (protein)
chain: MTDIAQLLGKDADNLLQHRCMTIPSDQLYLPGHDYVDRVMIDNNRPPAVLRNMQTLYNTGRLAGTGYLSILPVDQGVEHSAGASFAANPLYFDPKNIVELAIEAGCNCVASTYGVLASVSRRYAHRIPFLVKLNHNETLSYPNTYDQTLYASVEQAFNMGAVAVGATIYFGSEESRRQIEEISAAFERAHELGMVTVLWAYLRNSAFKKDGVDYHVSADLTGQANHLAATIGADIVKQKMAENNGGYKAINYGYTDDRVYSKLTSENPIDLVRYQLANCYMGRAGLINSGGAAGGETDLSDAVRTAVINKRAGGMGLILGRKAFKKSMADGVKLINAVQDVYLDSKITIA
Question: Which results are given for B3?
Answer: activity on (L)-ribulose-1P [11]: has an activity; activity on (D)-xylulose-1P [8]: has an activity; Km [9]: 330 ± 70 µM; Vmax [9]: 0.52 ± 0.1 U/mg

Reference: patent US10961551B2, “Process for producing at least one metabolite of interest by conversion of a pentose in a microorganism” (INSTITUT NATIONAL DE LA RECHERCHE AGRONOMIQUE—INRA, priority 2014, dated 2021)
